Laboratory results reported in the supplement of paper PMC10307832.

Tests used:
Test in all cases: relative viability (nuclei count vs DMSO), 5 days (fraction); higher = more cells survive
[1] = compound: CC(C)C[C@H](NC(=O)[C@H](Cc1ccccc1)NC(=O)c1cnccn1)B(O)O [Bortezomib] + C[C@]1(O)C[C@@H](c2nc(-c3ccc4ccc(-c5ccccc5)nc4c3)c3c(N)nccn32)C1 [Linsitinib] (partner 1 µM)
Procedure, shortened: (§1)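 Relative viability divides the nuclei count in treated wells by that in vehicle wells. Lung cancer cell lines were seeded in 1536-well plates, dosed by pin tool the next day, and fixed and stained after 5 days in one step with final 0.05% Triton X-100, 1% formaldehyde and 1 ug/ml Hoechst. Dosing was a single drug or a fixed anchor-drug dose plus five library-drug doses (not always all listed) in √10 steps, and values are medians of duplicate plates imaged at 4×.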

[2] = compound: CC(C)C[C@H](NC(=O)[C@H](Cc1ccccc1)NC(=O)c1cnccn1)B(O)O [Bortezomib] + O=C(c1cc(Cc2n[nH]c(=O)c3ccccc23)ccc1F)N1CCN(C(=O)C2CC2)CC1 [Olaparib] (partner 8 µM)
Procedure, shortened: as §1

[3] = compound: CC1=CC(=NN1)NC2=CC(=NC(=N2)/C=C/C3=CC=CC=C3)N4CCN(CC4)C + C[C@]1(O)C[C@@H](c2nc(-c3ccc4ccc(-c5ccccc5)nc4c3)c3c(N)nccn32)C1 [Linsitinib] (partner 1 µM)
Procedure, shortened: as §1

[4] = compound: COC1=CC(c2cc3ccccc3[nH]2)=N/C1=C\c1[nH]c(C)cc1C [Obatoclax] + C[C@]1(O)C[C@@H](c2nc(-c3ccc4ccc(-c5ccccc5)nc4c3)c3c(N)nccn32)C1 [Linsitinib] (partner 1 µM)
Procedure, shortened: as §1

Cell Line	relative viability ([1]; first compound 0.0002 µM)	relative viability ([1]; first compound 0.000632 µM)	relative viability ([1]; first compound 0.002 µM)	relative viability ([1]; first compound 0.006325 µM)	relative viability ([1]; first compound 0.02 µM)	relative viability ([2]; first compound 0.0002 µM)	relative viability ([2]; first compound 0.000632 µM)	relative viability ([2]; first compound 0.002 µM)	relative viability ([2]; first compound 0.006325 µM)	relative viability ([2]; first compound 0.02 µM)	relative viability ([3]; first compound 0.08 µM)	relative viability ([3]; first compound 0.253 µM)	relative viability ([3]; first compound 0.8 µM)	relative viability ([3]; first compound 2.53 µM)	relative viability ([3]; first compound 8 µM)	relative viability ([4]; first compound 0.01 µM)	relative viability ([4]; first compound 0.03162 µM)	relative viability ([4]; first compound 0.1 µM)	relative viability ([4]; first compound 0.3162 µM)	relative viability ([4]; first compound 1 µM)
NCI-H2087	0.944	1.15	0.764	0.11	0.215	0.634	0.672	0.286	0.0419	0.0226	0.982	0.909	0.965	0.723	0.203	0.949	0.773	0.748	0.429	0.264
COR-L 105	0.848	0.99	0.711	0.293	0.282	0.692	0.683	0.72	0.419	0.356	0.815	1.08	1.01	0.331	0.192	0.989	0.964	0.998	1.06	0.401
LCLC-97TM1	0.187	0.17	0.14	0.146	0.111	0.343	0.431	0.264	0.0586	0.0773	0.185	0.205	0.204	0.165	0.112	0.166	0.224	0.182	0.163	0.179
NCI-H520	1.12	0.991	0.483	0.137	0.143	0.333	0.334	0.218	0.117	0.116	1.01	0.995	0.664	0.233	0.122	0.925	0.891	1.12	0.583	0.262
NCI-H1993	0.683	0.766	0.733	0.499	0.58	1.01	1.01	0.679	0.363	0.398	0.842		0.617	0.594	0.55	0.754	0.772	0.712	0.737	0.623
NCI-H1437	1.04	1.1	0.885	0.0922	0.101	0.586	0.627	0.553	0.199	0.154	1.09	1.12	0.88	0.416	0.083	1.01	0.988	0.979	0.912	0.705
LC-2-ad	0.798		0.811	0.151	0.127	0.68	0.723	0.782	0.194	0.184	0.732	0.803	0.473	0.122	0.0815	0.829	0.828	0.906	0.688	0.434
HARA	0.899	0.836	0.895	0.0675	0.0867	0.973	0.809	0.872	0.0712	0.0979	1.07	0.899	1.03	0.139	0.0705	0.923	0.316	1.03	0.703	0.919
NCI-H1975	0.965	0.964	0.189	0.144	0.125	0.779	0.766	0.16	0.103	0.126	0.904	0.951	0.722	0.203	0.127	0.988	0.989	0.99	0.939	0.971
NCI-H2085	0.901	0.901	0.726	0.262	0.145	0.8	0.802	0.688	0.232	0.211	0.796	0.95	0.931	0.502	0.289	0.969	0.85	0.856	0.602	0.523
NCI-H3122	1.01	1.04	1.09	0.606	0.179	0.557	0.621	0.604	0.243	0.0898	1.01	0.944	0.999	0.884	0.77	1.01	1.02	1.04	0.97	1.01
NCI-H1651	0.943	0.996	0.31	0.133	0.12	0.181	0.194	0.144	0.0868	0.0799	0.904	1.2	0.855	0.607	0.144	0.915	0.961	0.91	0.432	0.271
NCI-H522						0.62	0.618	0.744	0.347	0.313										
NCI-H441	0.497	0.41	0.406	0.343	0.103	0.446	0.601	0.165	0.11	0.102	0.483	0.584	0.444	0.196	0.0922	0.683	0.551	0.394	0.52	0.435
ABC-1	0.806	0.688	0.308	0.257	0.234	0.897	0.922	0.374	0.342	0.424	0.787	0.983	0.724	0.581	0.173	0.619	0.768	0.815	0.928	0.372
NCI-H1563	1.25	1.25	1.02	0.534	0.466						1.23	1.34	1.18	0.718	0.514	1.14	1.15	1.18	1.26	0.943
NCI-H2170						0.583	0.576	0.584	0.11	0.102										
NCI-H1648						0.721	0.822	0.799	0.238	0.267										
SW 900						0.855	0.63	0.213	0.148	0.173										
NCI-H1650						0.607	0.757	0.165	0.12	0.157										
